This is an account of results in article PMC9714824, “Hexapeptides from mammalian inhibitory hormone hunt activate and inactivate nematode reproduction” (PLOS ONE, 2022).

The test system of assay [1] is MCF 7 human breast cancer cells. The conditions noted are these: in words; EPL120 over 72h, dose range 0.04 nM– 4 μM; cited from earlier work.
The next assay relates to DU145 cells. Briefly: MTS viable cell assay, DU145 (Epistem). The class given is cell-based, human. The conditions noted are these: DU145; 150 μM (highest concentration); 72h. Put shortly:
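DU145 or LNCaP cells, 3,000/well in RPMI with 10% FCS, grown 24 h, then peptide added: multiple dose levels, repeated after 24 h, for DU145; single dose level, once, for LNCaP; vehicle 1% PBS. MTS absorbance 492 nm at 72 h after first dose, background-subtracted OD mean±SEM; ANOVA with Dunnett's test.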
(Formazan colour is commonly taken as a measure of viable cells.)

Assay [2] concerns hDPSC (Human Dental Pulp Derived Mesenchymal-Like Stem/Progenitor Cells). On the set-up: method as in earlier work. The conditions noted are these: EPL001 0.15µM or EPL140 15µM, three days; cited from earlier work.
For the next assay, the system named is hMSCs. On the set-up: method as in earlier work. The conditions noted are these: EPL001 0.15µM or EPL140 15µM, three days; cited from earlier work.
In the next assay the test system is PNT2 cells. Briefly: MTS colorimetric viable cell assay, PNT2. The conditions noted are these: 30 μM, 27h, 492 nm, triplicate. The assay is classed as cell-based, human. How it is done:
Assays involving a range of peptides from 14mer down to 6mers assessed total viable PC3 or PNT2 cells using a 96-well plate MTS colorimetric assay (CellTiter 96 Aqueous One Solution Cell Proliferation Assay, Promega, Southampton, UK), with absorbance measured at 492 nm. Cells were seeded at 8,000 per well and grown for 27h. Peptides were administered at the outset to a final concentration of 30 μM (in 2 μl) to samples in triplicate. (A higher dosage was used than in the 14mer peptides study to shorten the timecourse of response.) Controls received buffer. Data are OD mean +/ − SEM, with statistical analysis by two tailed t-test. A time course study of the 14mers on PC3s, using the same technique, involved measurements at 24h and 48h.
Fig 5 Effects of a range of peptides on human prostate cancer cell growth in vitro. Assays involved a range of peptides from 14mers down to 6mers (Table 1), with viable cells assessed using a 96-well plate MTS colorimetric assay. Absorbance measured at 492 nm. Cells were seeded at 8,000 per well and grown for 27h. Peptides were administered at the outset to a final concentration of 30 μM (in 2 μl) to samples in triplicate. Controls received buffer. Data are OD mean +/- SEM, with statistical analysis by two tailed t-test. * p<0.05; **p<0.025.

The test system of another assay is LNCaP cells. Briefly: MTS viable cell assay, LNCaP (Epistem). The assay is classed as cell-based, human. The conditions noted are these: over 72h, single dose level. The procedure: Further assays on human prostate cancer cells were conducted at a contract research organisation (Epistem, Manchester, UK). LNCaP or DU145 cells seeded at 3,000 cells/well across a 96-well plate were cultured in RPMI (phenol red free), 10% FCS, 1% sodium pyruvate, Pen/strep and L-glutamine for 24h before exposure to peptides, at a single dose level in the case of LNCaPs or multiple dose levels in the case of DU145s. (For dose levels see Results.) Controls received vehicle (1% PBS). For the DU145s peptide administration was repeated after 24h. 72h after the first administration (DU145s) or only administration (LNCaP) total viable cell numbers were measured colorimetrically (MTS) using a CellTiter 96 AQueous One Solution Cell Proliferation Assay (Promega, Southampton, UK), following manufacturer’s instructions. Briefly, the media on the plates was replaced with the CellTiter reagent diluted 1:5 in DMEM. The plates were returned to the incubator for 3 hours before reading absorbance at 492 nm on a FLUORstar OPTIMA (BMG Labtech). CellTiter data are the absorbance minus background values (CellTiter plus DMEM), expressed as (OD mean +/− SEM). Statistical analysis was by ANOVA, Dunnett’s multiple comparisons test.

Assay [3] deals with compensatory renal growth. The conditions noted are these: in words; cited from earlier work. How it is done:
The 14-residue N-terminal Edman sequence EPL001 was determined in the context of a polypeptide candidate of m/z ~7,500 (‘Candidate 7500’) in MALDI-TOF mass spectrometry (MS) and a corresponding band in SDS polyacrylamide gel electrophoresis, implying a chain of ~70 aa for the native molecule. In spite of comprising only 20% of Candidate 7500, EPL001 surpris ...

Regarding “MKPLTGKVKEFNNI [EPL001, 14mer master test peptide …; ovine provenance]”, the “Inhibition of IGF-1 stimulated growth in MCF-7 cell numbers” value in assay [1] is reported as “inhibits the proliferation”. Further, the “Test mean OD vs control mean” value in the assay with DU145 cells is listed as −16.5%. In assay [2], the Bmal1 expression result was “↑”, the OCN expression entry is reported as “↓↓”, the PPARγ expression result is reported as “↓↓” and the Per2 expression entry is “↑”. For the same sequence, in assay [2], the Rev-ErbA expression entry is listed as “↓” and the Sox9 expression result is “(↓)”. Also, in the assay with hMSCs, the Bmal1 expression entry is “↑↑”, the OCN expression entry is given as “↓”, the PPARγ expression result is given as “↓” and the Per2 expression result is on record as “↓”. Moreover, the Sox9 expression entry in the assay with hMSCs is recorded as “↓”. Besides, in the assay on PNT2 cells, the “Difference in percentage terms between control and test OD means” value was “+3.1%”. Besides, the “Reduction in test mean OD versus the vehicle control mean” value with LNCaP cells is on record as -17.0%. Further, the “Effect on rat compensatory renal growth” value in assay [3] is “anti-organotrophic”.
